The assay relates to 186277-243-T-J2-PDC complex spheroid growth, % test/control. The experiment in a line: Anticancer human tumor 186277-243-T-J2-PDC patient-derived colon adenocarcinoma cell line growth inhibition [Asc]. The conditions noted are these: for viability, T/C: stronger effect = lower value. An outline of the steps: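 Concentration series start at each agent's clinical Cmax, or at 10 microM when none is established, and drop in half-log steps; agents are applied alone or together to complex spheroids built with HUVEC and hMSC.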

“And” between values parts separate entries of the source, which are not always exact repeats. Identical values can stand only once.
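Also: spheroids exposed to agents for 7 days.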
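For viability, T/C in this document: 100% = DMSO vehicle control wells.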

Turning to `NC1CCC(NC2CC2c2ccccc2)CC1` (stereo not drawn) + CCN1C(C(=O)NC23CCC(C(=O)O)(CC2)CC3)C(c2cccc(Cl)c2F)C2(C(=O)Nc3cc(Cl)ccc32)C12CCCCC2, the IC50 was more than 100 nM (curve of first compound, second compound 0.03 µM); more than 100 nM (curve of first compound, second compound 0.0949 µM); more than 100 nM (curve of first compound, second compound 0.3 µM); more than 100 nM (curve of first compound, second compound 0.949 µM); less than 0.316 nM (curve of first compound, second compound 3 µM). In addition, the viability, T/C runs as follows: (second compound 0.03 µM, first compound 0.000316 µM) 111%; (second compound 0.03 µM, first compound 0.001 µM) 138%; (second compound 0.03 µM, first compound 0.00316 µM) 112%; (second compound 0.03 µM, first compound 0.01 µM) 106%; (second compound 0.03 µM, first compound 0.0316 µM) 123%; (second compound 0.03 µM, first compound 0.1 µM) 113%. In addition, the viability, T/C is, setting by setting: (second compound 0.0949 µM, first compound 0.000316 µM) 114%; (second compound 0.0949 µM, first compound 0.001 µM) 132%; (second compound 0.0949 µM, first compound 0.00316 µM) 134%; (second compound 0.0949 µM, first compound 0.01 µM) 131%; (second compound 0.0949 µM, first compound 0.0316 µM) 131%; (second compound 0.0949 µM, first compound 0.1 µM) 141%. Moreover, the viability, T/C is, setting by setting: (second compound 0.3 µM, first compound 0.000316 µM) 93.4%; (second compound 0.3 µM, first compound 0.001 µM) 97.8%; (second compound 0.3 µM, first compound 0.00316 µM) 94.9%; (second compound 0.3 µM, first compound 0.01 µM) 93.3%; (second compound 0.3 µM, first compound 0.0316 µM) 92.9%; (second compound 0.3 µM, first compound 0.1 µM) 91.3%. Also, the viability, T/C was 66.3% (second compound 0.949 µM, first compound 0.000316 µM); 69.2% (second compound 0.949 µM, first compound 0.001 µM); 66.1% (second compound 0.949 µM, first compound 0.00316 µM); 65.8% (second compound 0.949 µM, first compound 0.01 µM); 67.9% (second compound 0.949 µM, first compound 0.0316 µM); 65.7% (second compound 0.949 µM, first compound 0.1 µM). The viability, T/C reads like this: (second compound 3 µM, first compound 0.000316 µM) 42.1%; (second compound 3 µM, first compound 0.001 µM) 43.6%; (second compound 3 µM, first compound 0.00316 µM) 44.1%; (second compound 3 µM, first compound 0.01 µM) 39.5%; (second compound 3 µM, first compound 0.0316 µM) 41.4%; (second compound 3 µM, first compound 0.1 µM) 42.8%.
On to `NC(=O)C(=Cn1cnc(-c2cc(C(F)(F)F)cc(C(F)(F)F)c2)n1)c1cncnc1` + CNC(C)C(=O)NC1CN(S(=O)(=O)c2cccc(S(=O)(=O)N3CCC4CCC(C(=O)NC(c5ccccc5)c5ccccc5)N4C(=O)C(NC(=O)C(C)NC)C3)c2)CCC2CCC(C(=O)NC(c3ccccc3)c3ccccc3)N2C1=O, for which the IC50 amounted to 192 nM (curve of first compound, second compound 0.01 µM); 204 nM (curve of first compound, second compound 0.0316 µM); 210 nM (curve of first compound, second compound 0.1 µM); 194 nM (curve of first compound, second compound 0.316 µM); 178 nM (curve of first compound, second compound 1 µM). Besides, the viability, T/C was 127% (second compound 0.01 µM, first compound 0.000949 µM); 102% (second compound 0.01 µM, first compound 0.003 µM); 98.9% (second compound 0.01 µM, first compound 0.00949 µM); 128% (second compound 0.01 µM, first compound 0.03 µM); 90.3% (second compound 0.01 µM, first compound 0.0949 µM); 24.3% (second compound 0.01 µM, first compound 0.3 µM). For the same compound, the viability, T/C (second compound 0.0316 µM, first compound 0.000949 µM) was 105%; the viability, T/C (second compound 0.0316 µM, first compound 0.003 µM) is 113%; the viability, T/C (second compound 0.0316 µM, first compound 0.00949 µM) was 93.8%; the viability, T/C (second compound 0.0316 µM, first compound 0.03 µM) is 109%; the viability, T/C (second compound 0.0316 µM, first compound 0.0949 µM) was 96.9%; the viability, T/C (second compound 0.0316 µM, first compound 0.3 µM) is 26.4%. Moreover, the viability, T/C was 114% (second compound 0.1 µM, first compound 0.000949 µM); 109% (second compound 0.1 µM, first compound 0.003 µM); 113% (second compound 0.1 µM, first compound 0.00949 µM); 118% (second compound 0.1 µM, first compound 0.03 µM); 107% (second compound 0.1 µM, first compound 0.0949 µM); 24.6% (second compound 0.1 µM, first compound 0.3 µM). The viability, T/C (second compound 0.316 µM, first compound 0.000949 µM) was 103%; the viability, T/C (second compound 0.316 µM, first compound 0.003 µM) is 107%; the viability, T/C (second compound 0.316 µM, first compound 0.00949 µM) is 110%; the viability, T/C (second compound 0.316 µM, first compound 0.03 µM) is 111%; the viability, T/C (second compound 0.316 µM, first compound 0.0949 µM) is 97.8%; the viability, T/C (second compound 0.316 µM, first compound 0.3 µM) is 20.3%. Moreover, the viability, T/C is 93.6% (second compound 1 µM, first compound 0.000949 µM); 108% (second compound 1 µM, first compound 0.003 µM); 113% (second compound 1 µM, first compound 0.00949 µM); 111% (second compound 1 µM, first compound 0.03 µM); 85.8% (second compound 1 µM, first compound 0.0949 µM); 20.2% (second compound 1 µM, first compound 0.3 µM).
With `C=C(F)C(=O)N1CCN(c2nc(OCC3CCCN3C)nc3c2CCN(c2cccc4cccc(Cl)c24)C3)CC1CC#N` (stereo not drawn), the viability, T/C is 107% and 98.5% and 102% (compound 0.0316 µM); 112% and 77.5% and 116% (compound 0.1 µM); 107% and 83.6% and 103% (compound 0.316 µM); 103% and 77.3% and 80.7% (compound 1 µM); 96.5% and 85% and 109% (compound 3.16 µM). For the setting “curve of compound”, the IC50 was 5700 nM and 5170 nM and 9280 nM.
Regarding `O=C(c1ccc(F)c(F)c1Nc1ccc(I)cc1F)N1CC(O)([C@@H]2CCCCN2)C1`, the viability, T/C by setting is: (compound 0.00316 µM) 87.9% and 90.5% and 94.8%; (compound 0.01 µM) 88.2% and 90.8% and 78.7%; (compound 0.0316 µM) 97.7% and 88.7% and 90.1%; (compound 0.1 µM) 59.7% and 58.8% and 96.4%; (compound 0.316 µM) 14.8% and 15.4% and 23.9%; (compound 1 µM) 9.12% and 8.82% and 13.1%. The IC50 (curve of compound) is 127 nM and 201 nM.

Source of the values: PubChem BioAssay AID1963426 (Molecular Pharmacology Branch, DTP, NCI, 2024).
